Measured values from PMC7918931 (Viruses, 2021).

How the values were obtained:
[1] = system: ~115 known WW domains (GST-fusion proteins); assay type: binding, mammalian
[2] = system: SMURF2 WW domain #3 (SMURF2-3); assay type: binding
[3] = target: GST-SMURF2-WW3 (Homo sapiens, UniProt Q9HAU4); assay type: binding; details: pH 7.4
Chain of GST-SMURF2-WW3 (Q9HAU4 297-330): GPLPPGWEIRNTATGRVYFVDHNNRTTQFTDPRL

`CC[C@H](C)[C@H](NC(=O)[C@H](C)NC(=O)[C@H](CCC(=O)O)NC(=O)[C@H](CCSC)NC(=O)[C@H](Cc1ccc(O)cc1)NC(=O)[C@H](CCC(=O)O)NC(=O)[C@@H]1CCCN1C(=O)[C@@H]1CCCN1C(=O)[C@H](C)NC(=O)[C@@H](NC(=O)[C@@H]1CCCN1C(=O)[C@H](CC(C)C)NC(=O)[C@@H](NC(=O)[C@@H](NC(=O)[C@H](CCCNC(=N)N)NC(=O)[C@H](CCCNC(=N)N)NC(=O)[C@@H](N)CCSC)C(C)C)[C@@H](C)CC)[C@@H](C)O)C(=O)N[C@@H](CCCCNC(=O)CCCC[C@@H]1SC[C@@H]2NC(=O)N[C@@H]21)C(=O)O` [eVP40-WT peptide] was tested, and the “interaction with host WW domains on array” value [1] was “interacted with a select number of host WW domains”, the “interaction with SMURF2 WW domain #3 on array” value [2] was “positive interaction” and the Bmax [3] was 39 RU.
